Read-outs that look alike come from different tables or passages of the source.
Experiments:
[1] = system: murine hepatocytes; assay: Assay E: stability in murine hepatocytes; format: in vitro ADME, mouse; settings: 1 μM, 5% species serum
Description: The metabolic degradation of the test compound is assayed in a murine hepatocyte suspension.
Murine hepatocytes (typically cryopreserved) are incubated in an appropriate buffer system (e.g. Dulbecco's modified eagle medium plus 3.5 μg glucagon/500 mL, 2.5 mg insulin/500 mL and 3.75 mg/500 mL hydrocortison) containing 5% species serum.
Following a (typically) 30 min preincubation in an incubator (37° C., 10% CO2) 5 μl of test compound solution (80 μM; from 2 mM in DMSO stock solution diluted 1:25 with medium) are added into 395 μl hepatocyte suspension (cell density in the range 0.25-5 Mio cells/mL, typically 1 Mio cells/mL; final concentration of test compound 1 μM, final DMSO concentration 0.05%).
The cells are incubated for six hours (incubator, orbital shaker) and samples (25 μl) are taken at 0, 0.5, 1, 2, 4 and 6 hours. Samples are transferred into acetonitrile and pelleted by centrifugation (5 min). The supernatant is transferred to a new 96-deepwell plate, evaporated under nitrogen and resuspended.
Decline of parent compound is analyzed by HPLC-MS/MS
CLint is calculated as follows CL_[…]=Dose/AUC=(C0/CD)/(AUD+clast/k)×1000/60. C0: initial concentration in the incubation [μM], CD: cell density of vital cells [10e6 cells/mL], AUD: area under the data [μM×h], clast: concentration of last data point [μM], k: slope of the regression line for parent decline [h−1].
The calculated in vitro hepatic intrinsic clearance can be scaled up to the intrinsic in vivo hepatic Clearance and used to predict hepatic in vivo blood clearance (CL) by the use of a liver model (well stirred model).
[formula] [formula] [formula] • Hepatocellularity, mouse: 120×10e6 cells/g liver • Liver factor, mouse: 55 g/kg bodyweight • Blood flow, mouse: 90 ml/(min×kg)

[2] = biological target: T1, QPCT (Homo sapiens, UniProt Q16769); assay: Assay A: biochemical QPCT activity assay (MALDI-TOF MS, CD47 peptide substrate); settings: read-out: Inhibition of QPCT: IC50
T1 construct: purchased Origine (OriGene) TP700028
T1 sequence (Q16769 29-361): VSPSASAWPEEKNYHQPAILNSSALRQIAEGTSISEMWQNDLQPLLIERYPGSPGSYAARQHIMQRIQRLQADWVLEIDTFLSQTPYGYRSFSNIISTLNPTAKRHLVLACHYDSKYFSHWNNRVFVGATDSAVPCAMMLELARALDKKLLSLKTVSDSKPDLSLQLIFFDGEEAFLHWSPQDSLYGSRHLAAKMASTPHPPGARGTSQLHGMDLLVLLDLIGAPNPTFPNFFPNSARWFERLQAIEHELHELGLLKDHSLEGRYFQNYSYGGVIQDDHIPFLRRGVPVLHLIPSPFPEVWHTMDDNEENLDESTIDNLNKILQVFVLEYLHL
Description: (§1) QPCT or QPCTL dependent conversion of N-terminal glutamine to pyroglutamate of CD47 was monitored via MALDI-TOF MS. Test compounds were dissolved in 100% DMSO and serially diluted into clear 1,536-well microtiter plates. Enzymatic reactions were set up in assay buffer containing 20 mM Tris pH 7.5, 0.1 mM TCEP, 0.01% BSA, and 0.001% Tween20. […] The plates were incubated for 10 min in a humidified incubator at 24° C. Subsequently, 2.5 μL of CD47 peptide substrate surrogate (^19[…]^33) was added to each well (final concentration: 10 μM for QPCTL/20 μM for QPCT). The plates were mixed for 30 sec at 1,000 rpm and subsequently incubated for 40 min in a humidified incubator at 24° C. […] The plates were sealed with an adhesive foil, mixed for 30 s at 1,000 rpm and stored at room temperature until preparation of the MALDI target plates. MALDI target plates were prepared as described previously. […] QPCT or QPCTL activity was monitored by calculating the ratio between product and internal standard signals followed by normalization to high (100% activity) and low (0% activity) controls. Determination of compound potencies was obtained by fitting the dose-response data to a four-parameter logistical equation.

[3] = system: SIRPα signalling induced by Raji cells; assay: Assay B: SIRPα signalling assay using Raji cells; format: cell-based; settings: Homo sapiens, read-out: Inhibition of SIRPα signalling induced by Raji cells: IC50
Description: Bioassay reagent 1 of the PathHunter Bioassay detection kit (DiscoverX 93-0001) was added to each well of the plate using a multichannel pipette followed by a 15 min incubation at room temperature. Afterwards bioassay reagent 2 was added followed by 60 min incubation at room temperature (incubation in the dark).
(§2) The analysis of the data was performed using the luminescence signal generated by beta-galactosidase in the PathHunter reporter cell line. The luminescence measurement was done using a Pherastar Multi-Mode Reader.

[4] = Assay C: permeability in CACO-2 cells; format: in vitro ADME; settings: human; for efflux ratio: read-out: Efflux Ratio
Description: Caco-2 cells (1-2×10^5 cells/1 cm^2 area) are seeded on filter inserts (Costar transwell polycarbonate or PET filters, 0.4 μm pore size) and cultured (DMEM) for 10 to 25 days. Compounds are dissolved in appropriate solvent (like DMSO, 1-20 mM stock solutions). […] The transport solution (TL) is applied to the apical or basolateral donor side for measuring A-B or B-A permeability (3 filter replicates), respectively. Samples are collected at the start and end of experiment from the donor and at various time intervals for up to 2 hours also from the receiver side for concentration measurement by HPLC-MS/MS or scintillation counting. Sampled receiver volumes are replaced with fresh receiver solution.
Efflux ratio (ER)=permeability B−A/permeability A−B

[5] = system: SIRPα signalling induced by A549 cells; assay: Assay B: SIRPα signalling assay using A549 cells; format: cell-based; settings: Homo sapiens, read-out: Inhibition of SIRPα signalling induced by A549 cells: IC50
Description: Two cell types are independently used: the Raji cell line (lymphoblast-like human cell line derived from B lymphocytes from a Burkitt's lymphoma patient in 1963) and A549 cells (adenocarcinoma human alveolar basal epithelial cells).
Test compounds were dissolved in 100% DMSO and serially diluted into a white 384-well microtiter cell culture plate (PerkinElmer #60076780 in case of Raji assay; PDL-coated plates Greiner #781945 in case of A549 assay). 5000 Raji cells (ATCC #CC86) or 5000 A549 cells (ATCC #CCL-185) in Assay Complete Cell Plating reagent 30 (DiscoverX 93-0563R30B) were added per well. The assay plate was incubated for 48 h at 37° C., 95% humidity and 5% CO2. 15000 reporter cells (Jurkat PathHunter SIRPαV1, DiscoverX #93-1135C19) were added to each well, and the plate was incubated for 5 h at 37° C., 95% humidity and 5% CO2. Bioassay reagent 1 of the PathHunter Bioassay detection kit (DiscoverX 93-0001) was added to each well of the plate using a multichannel pipette followed by a 15 min incubation at room temperature. Afterwards bioassay reagent 2 was added followed by 60 min incubation at room temperature (incubation in the dark).
as §2, with “Reader. Dose-response curves & IC50 data were calculated with 4-parameter sigmoidal dose response formula.” for “Reader.”

[6] = system: CYP3A4 mRNA; assay: Assay D: CYP induction screening assay in primary human hepatocytes; format: in vitro ADME; settings: 48 h
Description: Cryopreserved plateable human hepatocytes (single donor. BioIVT) were thawed and plated in Collagen-I coated 96-well-plates at a cell density of 0.07 million cells per well.
After a 6 h attachment period, the seeding medium was replaced by serum-free William's medium E supplemented with Matrigel (0.25 mg/ml) and allowed to recover overnight. 24 h post-seeding, serum-free Williams E medium containing the test compound at a final concentration of […] and a final DMSO content of 0.1% and 0.1% DMSO (solvent-treated control), respectively, was added to predefined wells. Exposure solutions were renewed after 24 h.
After 48 h of treatment in total, the effect of the test compounds on CYP3A4 mRNA expression was assessed using the QuantiGene Plex Gene Expression Assay. Hepatocytes were lysed and total RNA was extracted using the QuantiGene Sample Processing Kit according to the instructions of the manufacturer.
mRNA quantification was conducted using a customized QuantiGene Plex Panel to analyse CYP3A4 and the housekeeper genes RPL32, EIF4E2 and GUSB according to the instructions of the manufacturer and measured on a Luminex™ instrument. Signal was reported as median fluorescence intensity (MFI), which is proportional to the number of target RNA molecules present in the sample.
For calculation of CYP3A4 mRNA induction, the signal for CYP3A4 was normalized against the geometric mean of the signal obtained for the housekeeper genes for hepatocytes exposed to test compounds in relation to solvent-treated samples according to the following equation: […]

[7] = biological target: T2, QPCTL (Homo sapiens, UniProt Q9NXS2); assay: Assay A: biochemical QPCTL activity assay (MALDI-TOF MS, CD47 peptide substrate); settings: read-out: Inhibition of QPCTL: IC50
T2 construct: made in house
T2 sequence (Q9NXS2 whole entry, species assumed): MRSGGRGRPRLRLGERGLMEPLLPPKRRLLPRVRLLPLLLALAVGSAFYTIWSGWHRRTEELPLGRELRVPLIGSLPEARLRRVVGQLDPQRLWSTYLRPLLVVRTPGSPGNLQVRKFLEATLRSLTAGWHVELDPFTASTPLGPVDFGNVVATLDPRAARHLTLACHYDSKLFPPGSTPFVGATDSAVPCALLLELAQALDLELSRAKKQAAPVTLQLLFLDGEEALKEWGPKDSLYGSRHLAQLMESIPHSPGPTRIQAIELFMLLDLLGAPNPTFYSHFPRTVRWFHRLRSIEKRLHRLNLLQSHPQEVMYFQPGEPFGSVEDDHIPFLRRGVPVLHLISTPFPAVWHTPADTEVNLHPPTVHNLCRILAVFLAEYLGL
Description: as §1

[8] = Table 12, compounds of the invention
[9] = Table 2, compounds of the invention
[10] = Table 4, compounds of the invention
[11] = pH 7.2, Table 7, compounds of the invention, CACO-2 cells
[12] = pH 7.2, Table 7, compounds of the invention, CACO-2 cells, permeability B-A/permeability A-B
[13] = Table 9, compounds of the invention

SMILES	Mouse Hepatocyte Stability QH ([1]; Table 13, prior art compounds)	IC50 ([2]; Table 3, prior art compounds)	IC50 ([3]; Table 5, prior art compounds)	Papp A→B ([4]; Caco-2, pH 7.2)	efflux ratio ([4]; Caco-2, pH 7.2)	IC50 ([5]; Table 5, prior art compounds)	n-fold induction of CYP3A4 at 10 μM ([6]; Table 10, prior art compounds)	IC50 ([7]; Table 3, prior art compounds)	Mouse Hepatocyte Stability QH [1, 8]	IC50 [2, 9]	IC50 [3, 10]	Papp A→B [4, 11]	efflux ratio [4, 12]	IC50 [5, 10]	n-fold induction of CYP3A4 at 10 μM [6, 13]	IC50 [7, 9]
Cn1cnnc1C1(F)CCN(c2c(C#N)cc(C3CC3)nc2-c2ccnnc2)CC1 [Example 1]	–	–	–	–	–	–	–	–	49%	2 nM	107 nM	6.3 ×10⁻⁶ cm/s	7	15 nM	1.2 n-fold	1 nM
Cn1cnnc1C1(F)CCN(c2c(C#N)cc(C3CC3)nc2-c2cnc3nn(C(F)(F)F)cc3c2)CC1 [Example 2]	–	–	–	–	–	–	–	–	49%	1 nM	20 nM	37 ×10⁻⁶ cm/s	1.6	14 nM	4.6 n-fold	1 nM
Cn1cnnc1C1(F)CCN(c2c(C#N)cc(C(C)(F)F)nc2-c2cnc3nn(C(F)(F)F)cc3c2)CC1 [Example 3]	–	–	–	–	–	–	–	–	<12%	3 nM	10 nM	11 ×10⁻⁶ cm/s	6.4	7 nM	4.2 n-fold	3 nM
Cc1cc(C#N)c(N2CCC(F)(c3nncn3C)CC2)c(-c2cnc3nn(C(F)(F)F)cc3c2)n1 [Example 5]	–	–	–	–	–	–	–	–	16%	3 nM	31 nM	3.3 ×10⁻⁶ cm/s	13	6 nM	2.1 n-fold	1 nM
Cn1cnnc1C1(F)CCN(c2c(C#N)cc(C3CC3(F)F)nc2-c2ccnnc2)CC1 (stereo not drawn) [Example 6]	–	–	–	–	–	–	–	–	<12%	6 nM	226 nM	0.6 ×10⁻⁶ cm/s	36.1	82 nM	0.6 n-fold	2 nM
Cn1cnnc1C1(F)CCN(c2c(C#N)cc(C(F)(F)F)nc2-c2cc3cn(C(C)(C)C)nc3nc2C(F)F)CC1 [Example 14]	–	–	–	–	–	–	–	–	<12%	11 nM	117 nM	14 ×10⁻⁶ cm/s	5.3	44 nM	–	28 nM
Cn1cnnc1C1(F)CCN(c2c(C#N)cc(C(F)(F)F)nc2-c2cnc3nn(C(C)(C)C)c(C(F)F)c3c2)CC1 [Example 16]	–	–	–	–	–	–	–	–	–	1 nM	11 nM	34 ×10⁻⁶ cm/s	1.8	17 nM	6.0 n-fold	3 nM
Cn1cncc1C1CCN(c2c(C#N)cccc2-c2ccc(F)nc2)CC1 [QP5038, reference compound]	97%	–	21 nM	–	–	6 nM	58.5 n-fold	–	–	–	–	–	–	–	–	–

The next lines start with the values.

Mouse Hepatocyte Stability QH ([1]; Table 13, prior art compounds)	IC50 ([2]; Table 3, prior art compounds)	IC50 ([3]; Table 5, prior art compounds)	Papp A→B ([4]; Caco-2, pH 7.2)	efflux ratio ([4]; Caco-2, pH 7.2)	IC50 ([5]; Table 5, prior art compounds)	n-fold induction of CYP3A4 at 10 μM ([6]; Table 10, prior art compounds)	IC50 ([7]; Table 3, prior art compounds)	Mouse Hepatocyte Stability QH [1, 8]	IC50 [2, 9]	IC50 [3, 10]	Papp A→B [4, 11]	efflux ratio [4, 12]	IC50 [5, 10]	n-fold induction of CYP3A4 at 10 μM [6, 13]	IC50 [7, 9]	SMILES
92%	313 nM	> 10000 nM	0.3 ×10⁻⁶ cm/s	28.1	4500 nM	0.8 n-fold	97 nM	–	–	–	–	–	–	–	–	Cn1cnnc1C1CCN(c2c(C#N)cccc2-c2cncc3c2cnn3C)CC1 [Compound 4, reference compound]
65%	1080 nM	5990 nM	11 ×10⁻⁶ cm/s	5.4	3150 nM	8.7 n-fold	554 nM	–	–	–	–	–	–	–	–	Cn1cnnc1C1CCN(c2c(C#N)cccc2-c2ccc3ocnc3c2)CC1 [Compound 15, reference compound]
62%	106 nM	2810 nM	19 ×10⁻⁶ cm/s	3.4	296 nM	15.8 n-fold	117 nM	–	–	–	–	–	–	–	–	Cn1cnnc1C1CCN(c2c(C#N)cccc2-c2ccc3nonc3c2)CC1 [Compound 19, reference compound]
45%	446 nM	4490 nM	0.6 ×10⁻⁶ cm/s	30.4	> 10000 nM	2.1 n-fold	159 nM	–	–	–	–	–	–	–	–	Cn1cnnc1C1CCN(c2c(C#N)cccc2-c2cnc3cn[nH]c3c2)CC1 [Compound 125, reference compound]

Reference: patent publication US20250250251A1, “PIPERIDINYLPYRIDINYLCARBONITRILE DERIVATIVES AS INHIBITORS OF GLUTAMINYL-PEPTIDE CYCLOTRANSFERASE AND GLUTAMINYL-PEPTIDE CYCLOTRANSFERASE LIKE PROTEIN” (Boehringer Ingelheim International GmbH, priority 2024, published 2025)
